Experimental data: US20100105864A1, “PROPHYLACTIC OR THERAPEUTIC AGENT FOR DIARRHEA” (priority 2007, published 2010)
Marks after values point to notes of the source that are not given here.

Columns and labels:
rat large intestine loop = assay: Fluid absorption in rat large intestine loop method (PGE2-stimulated); format: in vivo, rats; details: injected into loop 30 minutes after PGE2 i.p.; measured after 1 hour
Protocol: The cecum and large intestine were extirpated from the abdomen of each of male SD (IGS) rats under pentobarbital anesthesia, and the site 5 cm away from the area just under the cecum was ligated to form a large intestine loop Immediately after the loop had been formed, PGE2 (4 μg/ml/kg, SIGMA) was intraperitoneally administered, and after 30 minutes, a medicament, which had been dissolved in 2 ml of Tyrode's solution (NaCl: 136.9 mM, KCl: 2.7 mM, CaCl2.2H2O: 1.8 mM, MgCl2.6H2O: 1.04 mM, NaH2PO4.2H2O: 0.04 mM, NaH2PO4.2H2O: 0.04 mM, glucose: 5.55 mM, NaHCO3: 11.9 mM), was injected into the prepared loop (the medicament solution was adjusted so that the pH would be 6.5 to 7.5). As a control, Tyrode's solution free of any medicament (vehicle) was administered. After 1 hour, the loop weight, the loop weight after solution removal, and the loop area were measured to calculate a solution weight per unit area remaining in the loop.
The remaining solution amount per unit area was calculated with the following equation:
Remaining solution amount per unit area(g/cm^2)=(Loop weight−Loop weight after solution removal)/Loop area.
The fluid absorption was evaluated by calculating an inhibitory rate from the following equation:
Inhibitory rate(%)=100−(Remaining solution amount per unit area under drug administration−Remaining solution amount per unit area in base(average))/(Remaining solution amount per unit area under vehicle administration(average)−Remaining solution amount per unit area in base(average))×100.
(Base=case where no stimulation is given (no treatment with PGE2))

Balb/c mice = assay: Anticancer agent (5-FU)-induced diarrhea model; format: in vivo
Protocol: To each of Balb/c mice, an anticancer agent was administered to induce diarrhea, and γ-Glu-Val-Gly (hereinafter, referred to as “γEVG”) was studied for its inhibitory effect on diarrhea. To each of 6-week-old Balb/c mice fed with a low protein nutrient diet (4% casein diet) for 1 week, 5-FU (1 mg/animal/day) was intraperitoneally administered for consecutive 3 days. The diarrhea developed around Day 5 after the third administration of the anticancer agent, and the diarrhea appeared in all cases on Day 7. The presence or absence of diarrhea was determined based on the presence or absence of the stool in the tail head area. As the statistical test, a chi-square (χ^2) test for the control group (presence or absence of diarrhea) was employed, and p<0.05 was regarded as significant.
Each administration of 0.01% γEVG was started in free water intake at the same time as the first administration of the anticancer agent, and continued until completion of the experiment.
To each of Balb/c mice, an anticancer agent was administered to induce diarrhea, and a calcium receptor activator (hereinafter, referred to as “CaSR agonist”) was studied for its inhibitory effect on diarrhea. To each of 6-week-old Balb/c mice fed with a low protein nutrient diet (4% casein diet) for 1 week, 5-FU (1 mg/animal/day) was intraperitoneally administered for consecutive 3 days. The diarrhea developed around Day 5 after the third administration of the anticancer agent, and the diarrhea appeared in all cases on Day 7. The presence or absence of diarrhea was determined based on the presence or absence of the stool in the tail head area. As the statistical test, a chi-square (χ^2) test for the control group (presence or absence of diarrhea) was employed, and p<0.05 was regarded as significant.
The administration of the CaSR agonist was started in free water intake at the same time as the administration of the low protein nutrient diet, and continued until completion of the experiment.

With N[C@@H](CCC(=O)N[C@@H](CS)C(=O)NCC(=O)O)C(=O)O [γ-Glu-Cys-Gly] the “fluid absorption (inhibitory rate from remaining solution amount per unit area)” value (rat large intestine loop) was “promoted fluid absorption”, the “mice that did not exhibit the diarrhea symptom” value (Balb/c mice; 0.5% administration group, free water intake from start of low protein diet, control all 9/9 with diarrhea) was 2 out of 5 and the “Ratio of individuals that developed diarrhea” value (Balb/c mice; 0.5% in free water intake from start of low protein diet, control 9/9, p < 0.05 chi-square) was 3/5*.
